Measurements taken from publication PMC10254852, “Design, Synthesis and Anticancer Evaluation of Nitroimidazole Radiosensitisers” (Molecules, 2023).
Read-outs that look alike come from different tables or passages of the source.

Legend:
[1] = system: HCT116/54C cells; test: In vitro radiosensitisation under anoxia, clonogenic survival; type: cell-based, human; conditions: compound 1 mM, radiation dose for 1% survival/radiation dose for 1% survival with compound, mean ± SEM
[2] = system: UT-SCC-74B cells; test: In vitro cytotoxicity, 4 h exposure oxic/anoxic, 5-day regrowth, sulforhodamine B; type: cell-based, human; conditions: for IC50: Homo sapiens, 4 h exposure, mean ± SEM
[3] = system: HCT116/54C cells; test: as above; type: cell-based, human; conditions: for IC50: Homo sapiens, 4 h exposure, mean ± SEM, n = 3–4
[4] = system: FaDu cells; test: as above; type: cell-based; conditions: for IC50: Homo sapiens, 4 h exposure, mean ± SEM
[5] = system: UT-SCC-74B tumour xenografts; test: Tumour growth inhibition in combination with radiation; type: in vivo, NIH-III mice; conditions: UT-SCC-74B tumours, single dose 2.2 mmol/kg i.v.
Method: (§1) Specific pathogen-free six- to eight-week-old female NIH-III mice, bred in the Vernon Jansen Unit, University of Auckland, were used for animal experiments. Animals had ad libitum access to food and water and were maintained in microisolator cages on a 12 h light/dark cycle. All treatments were administered by i.v. injection at a dose of 2.2 mmol/kg and injection volume of 10 mL/kg. Compounds 2, 34 and 38 were administered as solutions in saline containing 1% DMSO or for 9–12 as solutions in saline containing 2 molar equivalents of NaHCO3. Control animals received an i.v. injection of saline at 10 mL/kg. All animal experiments were conducted under the auspices of the University of Auckland Animal Ethics Committee (approval 1781).
(§2) Compounds were evaluated for their ability to inhibit tumour growth in combination with a single dose of radiation (10 Gy) in HCT116/54C or UT-SCC-74B tumour xenografts on the backs of NIH-III mice. In addition, a fractionated radiation schedule (5 Gy on Days 1, 7 and 14) was explored in HCT116/54C tumour xenografts. Mice were randomly assigned to 4 treatment groups and treated with: (A) vehicle control, (B) 10 Gy RAD only, (C) sensitiser only, or (D) sensitiser given 10 min before 10 Gy RAD. Drugs were administered by i.v. injection at 2.2 mmol/kg either as a single dose or three doses on Days 1, 7 and 14 in the fractionated study. Treatment commenced when the average tumour size reached approximately 250 mm^3, and tumour size was measured until study endpoint. Mice were placed in a custom-built lead-shielded jig that allowed irradiation of the whole tumour but shielded the mouse from radiation. Survival analysis represented the time taken for tumours to increase in relative tumour volume by 4× from the start of treatment (RTV^4). The significance of differences in activity between the groups was assessed by log-rank with Holm–Sidak multiple comparison analysis.

[6] = system: HCT116/54C tumour xenografts; test: as above; type: in vivo, NIH-III mice; conditions: HCT116/54C tumours
Method: as §1, §2

[7] = anoxic, n = 3–4, read-out: IC50 Anoxic
[8] = oxic, n = 3–4, read-out: IC50 Oxic

With `O=[N+]([O-])c1nccn1CS(=O)(=O)NCCN1CCOCC1` [Compound 34] the “SER at 1 mM” value [1] was 1.92 ± 0.01, the IC50 [2, 7] was 0.51 ± 0.08 mM and the IC50 [2, 8] was 12.6 ± 1.8 mM. For the same compound, the HCR ([2]; IC50(oxic)/IC50(anoxic)) was 24.5, the HCR ([3]; HCT116/54C, IC50(oxic)/IC50(anoxic)) was 38.8 and the IC50 ([3]; HCT116/54C, anoxic, read-out: IC50 Anoxic) was 0.17 ± 0.01 mM. The IC50 ([3]; HCT116/54C, oxic, read-out: IC50 Oxic) was 6.4 ± 1 mM, the “HCR values in vitro” value ([3]; range across the cell line panel) was 23–38 and the IC50 [4, 7] was 0.16 ± 0.01 mM. The IC50 [4, 8] was 3.7 ± 0.1 mM, the HCR ([4]; IC50(oxic)/IC50(anoxic)) was 23.3 and the “tumour growth inhibition with single dose 10 Gy radiation” value [5] was “able to sensitise 10 Gy radiation to a similar level observed with 2”. The “survival (time to RTV^4) vs radiation alone” value ([6]; fractionated radiation, p < 0.05) was “significantly increased survival compared to radiation alone”, the “tumour growth delay with fractionated radiation” value ([6]; qw × 3, 5 Gy, 2.2 mmol/kg i.v.) was “delayed tumour growth relative to radiation alone” and the “tumour growth inhibition with single dose 10 Gy radiation” value ([6]; single dose 2.2 mmol/kg i.v.) was “able to sensitise 10 Gy radiation to a similar level observed with 2”.
